Assay results published in the supplement of paper PMC13207355.

Legend:
Details in all cases: exposure time: 72 h
FT3469 [1] = normal neural stem cell line; experiment: surviving fraction (nuclei count normalised to DMSO); higher = more cells surviving (less toxic)
E13 [2] = patient-derived glioblastoma stem cells of classical subtype; experiment: as above
E57 [3] = patient-derived glioblastoma stem cells of mesenchymal subtype; experiment: as above
E34 [4] = patient-derived glioblastoma stem cells of proneural subtype; experiment: as above
E31 [5] = patient-derived glioblastoma stem cells of proneural subtype; experiment: as above
E28 [6] = patient-derived glioblastoma stem cells of classical subtype; experiment: as above
E21 [7] = patient-derived glioblastoma stem cells of mesenchymal subtype; experiment: as above
FT3469 [8] = experiment: phenotypic distance (Euclidean, principal components) from DMSO controls (arbitrary units); higher = stronger morphological change
E13 [9] = experiment: as above
E57 [10] = experiment: as above
E34 [11] = experiment: as above
E31 [12] = experiment: as above
E28 [13] = experiment: as above
E21 [14] = experiment: as above
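For phenotypic distance (Euclidean, principal components) from DMSO controls in this document: cell Painting imaging in 384-well plates, CellProfiler features reduced to at least 20 principal components, Euclidean distance versus same-plate DMSO vehicle wells (0.1% v/v), median over six images per well.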
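For surviving fraction (nuclei count normalised to DMSO) in this document: nuclei counted by high-content imaging of Hoechst-stained cells in laminin-coated 384-well plates, relative to 0.1% DMSO vehicle wells, with staurosporine as cell-death control.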

CC(=O)OC[C@H]1O[C@@H]([S-])[C@H](OC(C)=O)[C@@H](OC(C)=O)[C@@H]1OC(C)=O.CCP(CC)CC.[Au+] [Auranofin]
Details	phenotypic distance	surviving fraction
E13 [2], 4.1 nM	–	0.841
E13 [2], 12.3 nM	–	1.05
E13 [2], 37 nM	–	1.04
E13 [2], 111.1 nM	–	1.09
E13 [2], 333.3 nM	–	0.968
E13 [2], 1000 nM	–	0.851
E13 [2], 3000 nM	–	0.227
E13 [9], 4.1 nM	0.698	–
E13 [9], 12.3 nM	0.74	–
E13 [9], 37 nM	0.381	–
E13 [9], 111.1 nM	0.629	–
E13 [9], 333.3 nM	0.569	–
E13 [9], 1000 nM	0.919	–
E13 [9], 3000 nM	5.8	–
E21 [7], 4.1 nM	–	0.997
E21 [7], 12.3 nM	–	1
E21 [7], 37 nM	–	1.02
E21 [7], 111.1 nM	–	0.947
E21 [7], 333.3 nM	–	0.979
E21 [7], 1000 nM	–	0.84
E21 [7], 3000 nM	–	0.255
E21 [14], 4.1 nM	0.692	–
E21 [14], 12.3 nM	0.512	–
E21 [14], 37 nM	1.07	–
E21 [14], 111.1 nM	0.632	–
E21 [14], 333.3 nM	1.15	–
E21 [14], 1000 nM	2.27	–
E21 [14], 3000 nM	5.54	–
E28 [6], 4.1 nM	–	1.1
E28 [6], 12.3 nM	–	0.95
E28 [6], 37 nM	–	0.888
E28 [6], 111.1 nM	–	0.581
E28 [6], 333.3 nM	–	0.418
E28 [6], 1000 nM	–	0.177
E28 [6], 3000 nM	–	0.00427
E28 [13], 4.1 nM	1.07	–
E28 [13], 12.3 nM	0.679	–
E28 [13], 37 nM	0.773	–
E28 [13], 111.1 nM	1.25	–
E28 [13], 333.3 nM	1.81	–
E28 [13], 1000 nM	2.9	–
E28 [13], 3000 nM	11.4	–
E31 [5], 4.1 nM	–	1.17
E31 [5], 12.3 nM	–	0.911
E31 [5], 37 nM	–	1.03
E31 [5], 111.1 nM	–	1.13
E31 [5], 333.3 nM	–	1.09
E31 [5], 1000 nM	–	0.723
E31 [5], 3000 nM	–	0.00651
E31 [12], 4.1 nM	1.04	–
E31 [12], 12.3 nM	0.586	–
E31 [12], 37 nM	0.373	–
E31 [12], 111.1 nM	1.33	–
E31 [12], 333.3 nM	1.16	–
E31 [12], 1000 nM	1.4	–
E31 [12], 3000 nM	8.52	–
E34 [4], 4.1 nM	–	0.913
E34 [4], 12.3 nM	–	1.08
E34 [4], 37 nM	–	1.18
E34 [4], 111.1 nM	–	1.01
E34 [4], 333.3 nM	–	0.92
E34 [4], 1000 nM	–	0.993
E34 [4], 3000 nM	–	0.269
E34 [11], 4.1 nM	0.444	–
E34 [11], 12.3 nM	0.588	–
E34 [11], 37 nM	1.03	–
E34 [11], 111.1 nM	0.434	–
E34 [11], 333.3 nM	1.04	–
E34 [11], 1000 nM	0.939	–
E34 [11], 3000 nM	5.66	–
E57 [3], 4.1 nM	–	0.985
E57 [3], 12.3 nM	–	0.96
E57 [3], 37 nM	–	1.12
E57 [3], 111.1 nM	–	0.993
E57 [3], 333.3 nM	–	0.966
E57 [3], 1000 nM	–	0.884
E57 [3], 3000 nM	–	0.0901
E57 [10], 4.1 nM	0.808	–
E57 [10], 12.3 nM	0.759	–
E57 [10], 37 nM	0.726	–
E57 [10], 111.1 nM	0.677	–
E57 [10], 333.3 nM	1.12	–
E57 [10], 1000 nM	2.3	–
E57 [10], 3000 nM	9.6	–
FT3469 [1], 4.1 nM	–	1.13
FT3469 [1], 12.3 nM	–	1.02
FT3469 [1], 37 nM	–	0.955
FT3469 [1], 111.1 nM	–	0.76
FT3469 [1], 333.3 nM	–	0.898
FT3469 [1], 1000 nM	–	0.909
FT3469 [1], 3000 nM	–	0.0719
FT3469 [8], 4.1 nM	0.766	–
FT3469 [8], 12.3 nM	0.505	–
FT3469 [8], 37 nM	0.606	–
FT3469 [8], 111.1 nM	1.02	–
FT3469 [8], 333.3 nM	0.835	–
FT3469 [8], 1000 nM	1.28	–
FT3469 [8], 3000 nM	5.55	–

CCN1CCN(C(=O)Cc2ccc(Nc3ncc(F)c(Nc4ccc(C(=O)Nc5ccccc5Cl)cc4)n3)cc2)CC1 [Aurora-A Inhibitor I]
Details	phenotypic distance	surviving fraction
E13 [2], 4.1 nM	–	0.898
E13 [2], 12.3 nM	–	0.858
E13 [2], 37 nM	–	0.898
E13 [2], 111.1 nM	–	0.786
E13 [2], 333.3 nM	–	0.755
E13 [2], 1000 nM	–	0.643
E13 [2], 3000 nM	–	0.588
E13 [9], 4.1 nM	0.68	–
E13 [9], 12.3 nM	0.752	–
E13 [9], 37 nM	1.14	–
E13 [9], 111.1 nM	1.23	–
E13 [9], 333.3 nM	1.57	–
E13 [9], 1000 nM	2.01	–
E13 [9], 3000 nM	2.52	–
E21 [7], 4.1 nM	–	0.962
E21 [7], 12.3 nM	–	0.968
E21 [7], 37 nM	–	0.937
E21 [7], 111.1 nM	–	1.04
E21 [7], 333.3 nM	–	0.873
E21 [7], 1000 nM	–	0.369
E21 [7], 3000 nM	–	0.0545
E21 [14], 4.1 nM	0.463	–
E21 [14], 12.3 nM	0.798	–
E21 [14], 37 nM	0.695	–
E21 [14], 111.1 nM	0.686	–
E21 [14], 333.3 nM	0.809	–
E21 [14], 1000 nM	3.84	–
E21 [14], 3000 nM	8.57	–
E28 [6], 4.1 nM	–	0.826
E28 [6], 12.3 nM	–	1.04
E28 [6], 37 nM	–	0.98
E28 [6], 111.1 nM	–	1.01
E28 [6], 333.3 nM	–	0.732
E28 [6], 1000 nM	–	0.295
E28 [6], 3000 nM	–	0.265
E28 [13], 4.1 nM	0.837	–
E28 [13], 12.3 nM	1.2	–
E28 [13], 37 nM	0.715	–
E28 [13], 111.1 nM	0.655	–
E28 [13], 333.3 nM	1.3	–
E28 [13], 1000 nM	5.35	–
E28 [13], 3000 nM	7.22	–
E31 [5], 4.1 nM	–	0.968
E31 [5], 12.3 nM	–	0.879
E31 [5], 37 nM	–	0.989
E31 [5], 111.1 nM	–	0.819
E31 [5], 333.3 nM	–	0.602
E31 [5], 1000 nM	–	0.0846
E31 [5], 3000 nM	–	0.0618
E31 [12], 4.1 nM	0.624	–
E31 [12], 12.3 nM	0.904	–
E31 [12], 37 nM	0.48	–
E31 [12], 111.1 nM	0.975	–
E31 [12], 333.3 nM	1.09	–
E31 [12], 1000 nM	6.37	–
E31 [12], 3000 nM	11.8	–
E34 [4], 4.1 nM	–	0.935
E34 [4], 12.3 nM	–	0.848
E34 [4], 37 nM	–	0.988
E34 [4], 111.1 nM	–	0.958
E34 [4], 333.3 nM	–	0.736
E34 [4], 1000 nM	–	0.635
E34 [4], 3000 nM	–	0.198
E34 [11], 4.1 nM	0.739	–
E34 [11], 12.3 nM	0.951	–
E34 [11], 37 nM	0.479	–
E34 [11], 111.1 nM	0.728	–
E34 [11], 333.3 nM	0.971	–
E34 [11], 1000 nM	1.96	–
E34 [11], 3000 nM	9.28	–
E57 [3], 4.1 nM	–	0.996
E57 [3], 12.3 nM	–	0.998
E57 [3], 37 nM	–	0.968
E57 [3], 111.1 nM	–	1.03
E57 [3], 333.3 nM	–	0.905
E57 [3], 1000 nM	–	0.513
E57 [3], 3000 nM	–	0.0372
E57 [10], 4.1 nM	0.556	–
E57 [10], 12.3 nM	1.22	–
E57 [10], 37 nM	0.495	–
E57 [10], 111.1 nM	0.921	–
E57 [10], 333.3 nM	1.17	–
E57 [10], 1000 nM	3.49	–
E57 [10], 3000 nM	11.6	–
FT3469 [1], 4.1 nM	–	1.01
FT3469 [1], 12.3 nM	–	0.895
FT3469 [1], 37 nM	–	0.866
FT3469 [1], 111.1 nM	–	0.883
FT3469 [1], 333.3 nM	–	1.04
FT3469 [1], 1000 nM	–	0.483
FT3469 [1], 3000 nM	–	0.394
FT3469 [8], 4.1 nM	0.518	–
FT3469 [8], 12.3 nM	0.954	–
FT3469 [8], 37 nM	0.712	–
FT3469 [8], 111.1 nM	0.933	–
FT3469 [8], 333.3 nM	0.835	–
FT3469 [8], 1000 nM	1.89	–
FT3469 [8], 3000 nM	13.2	–
